# According to ChEMBL document CHEMBL6177928, “Probing structural requirements for thiazole-based mimetics of sunitinib as potent VEGFR-2 inhibitors” (RSC Med Chem, 2025):
# Activity calls are given as the source filed them. No cut-off for these calls is given here.
# Experiments:
# [1] = Cytotoxicity against human WI-38 cells incubated for 48 hrs by MTT assay; format: toxicity, cell-based
# HeLa [2] = experiment: cells; conditions: Homo sapiens, 48 h
# Description: Antitumor activity against human HeLa cells assessed as inhibition of cell viability incubated for 48 hrs by MTT assay
# WISH = experiment: Cytotoxicity against human WISH cells at up to 50 uM incubated for 48 hrs by MTT assay; format: toxicity, cell-based
# WI-38 = experiment: Cytotoxicity against human WI-38 cells up to 50 uM incubated for 48 hrs by MTT assay; format: toxicity, cell-based; conditions: wi-38, 48 h
# HCT-116 [3] = experiment: cells; conditions: Homo sapiens, HCT-116, 48 h
# Description: Antitumor activity against human HCT-116 cells assessed as inhibition of cell viability incubated for 48 hrs by MTT assay
# HepG2 = experiment: cells; conditions: Homo sapiens, HepG2, 48 h
# Description: Antitumor activity against human HepG2 cells assessed as inhibition of cell viability incubated for 48 hrs by MTT assay
# MCF7 [4] = experiment: cells; conditions: Homo sapiens, MCF7, 48 h
# Description: Antitumor activity against human MCF7 cells assessed as inhibition of cell viability incubated for 48 hrs by MTT assay
# HEp-2 = experiment: cells; conditions: Homo sapiens, HEp-2, 48 h
# Description: Antitumor activity against human HEp-2 cells assessed as inhibition of cell viability incubated for 48 hrs by MTT assay
# [5] = Cytotoxicity against human WISH cells incubated for 48 hrs by MTT assay; format: toxicity, cell-based
# MCF7 [6] = experiment: Induction of cell cycle arrest in human MCF7 cells assessed as accumulation of cells at S phase measured after 24 hrs by PI/Rnase staining based flow cytometry analysis (reference value: 28.77 %); format: functional
# Ehrlich [7] = experiment: Antitumor activity against mouse EAC cells xenografted in Swiss albino mouse assessed as reduction in tumor volume at 10 mg/kg, ip measured after 5 to 20 days; format: functional, organism-based; conditions: time 5-20 day
# MCF7 [8] = experiment: Induction of cell cycle arrest in human MCF7 cells assessed as accumulation of cells at G2/M phase measured after 24 hrs by PI/Rnase staining based flow cytometry analysis (reference value: 14.86 %); format: functional
# MCF7 [9] = experiment: Induction of cell cycle arrest in human MCF7 cells assessed as accumulation of cells at G1 phase measured after 24 hrs by PI/Rnase staining based flow cytometry analysis (reference value: 56.37%); format: functional
# HeLa [10] = experiment: Induction of apoptosis in human HeLa cells assessed as necrotic cells incubated for 24 hrs by Annexin-V-FITC/PI staining based flow cytometry analysis (reference value: 1.12 %); format: functional
# HCT-116 [11] = experiment: Induction of apoptosis in human HCT-116 cells assessed as necrotic cells incubated for 24 hrs by Annexin-V-FITC/PI staining based flow cytometry analysis (reference value: 1.34%); format: functional
# HeLa [12] = experiment: Induction of cell cycle arrest in human HeLa cells assessed as accumulation of cells at S phase measured after 24 hrs by PI/Rnase staining based flow cytometry analysis (reference value: 31.04 %); format: functional
# HCT-116 [13] = experiment: Induction of cell cycle arrest in human HCT-116 cells assessed as accumulation of cells at G1 phase measured after 24 hrs by PI/Rnase staining based flow cytometry analysis (reference value: 47.28%); format: functional
# MCF7 [14] = experiment: Induction of apoptosis in human MCF7 cells assessed as early apoptotic cells incubated for 24 hrs by Annexin-V-FITC/PI staining based flow cytometry analysis (reference value: 0.51%); format: functional
# MCF7 [15] = experiment: Induction of apoptosis in human MCF7 cells assessed as necrotic cells incubated for 24 hrs by Annexin-V-FITC/PI staining based flow cytometry analysis (reference value: 1.57%); format: functional
# HCT-116 [16] = experiment: Induction of cell cycle arrest in human HCT-116 cells assessed as accumulation of cells at G2/M phase measured after 24 hrs by PI/Rnase staining based flow cytometry analysis (reference value: 17.66 %); format: functional
# HeLa [17] = experiment: Induction of cell cycle arrest in human HeLa cells assessed as accumulation of cell debris measured after 24 hrs by PI/Rnase staining based flow cytometry analysis (reference value: 1.33%); format: functional
# HCT-116 [18] = experiment: Induction of cell cycle arrest in human HCT-116 cells assessed as accumulation of cell debris measured after 24 hrs by PI/Rnase staining based flow cytometry analysis (reference value: 1.33%); format: functional
# HCT-116 [19] = experiment: Induction of cell cycle arrest in human HCT-116 cells assessed as accumulation of cells at S phase measured after 24 hrs by PI/Rnase staining based flow cytometry analysis (reference value: 17.66 %); format: functional
# HeLa [20] = experiment: Induction of apoptosis in human HeLa cells assessed as late apoptotic cells incubated for 24 hrs by Annexin-V-FITC/PI staining based flow cytometry analysis (reference value: 0.13 %); format: functional
# HCT-116 [21] = experiment: Induction of apoptosis in human HCT-116 cells assessed as late apoptotic cells incubated for 24 hrs by Annexin-V-FITC/PI staining based flow cytometry analysis (reference value: 0.16%); format: functional
# HeLa [22] = experiment: Induction of cell cycle arrest in human HeLa cells assessed as accumulation of cells at G2/M phase measured after 24 hrs by PI/Rnase staining based flow cytometry analysis (reference value: 16.27 %); format: functional
# HCT-116 [23] = experiment: Induction of apoptosis in human HCT-116 cells assessed as early apoptotic cells incubated for 24 hrs by Annexin-V-FITC/PI staining based flow cytometry analysis (reference value: 0.44%); format: functional
# HeLa [24] = experiment: Induction of cell cycle arrest in human HeLa cells assessed as accumulation of cells at G1 phase measured after 24 hrs by PI/Rnase staining based flow cytometry analysis (reference value: 52.69 %); format: functional
# MCF7 [25] = experiment: Induction of apoptosis in human MCF7 cells assessed as late apoptotic cells incubated for 24 hrs by Annexin-V-FITC/PI staining based flow cytometry analysis (reference value: 0.21%); format: functional
# MCF7 [26] = experiment: Induction of cell cycle arrest in human MCF7 cells assessed as accumulation of cell debris measured after 24 hrs by PI/Rnase staining based flow cytometry analysis (reference value: 1.61%); format: functional
# HeLa [27] = experiment: Induction of apoptosis in human HeLa cells assessed as early apoptotic cells incubated for 24 hrs by Annexin-V-FITC/PI staining based flow cytometry analysis (reference value: 0.41 %); format: functional
# Ehrlich [28] = experiment: Antitumor activity against mouse EAC cells xenografted in Swiss albino mouse assessed as tumor growth inhibition at 10 mg/kg, ip measured after 10 to 20 days; format: functional; conditions: read-out: TGI, time 10-20 day
structure (smiles),measurement,setting,value
N#Cc1sc(Nc2ccccc2)nc1Nc1cnc(N)s1,IC50 at 48 h,[1],> 100 µM
same,IC50,HeLa [2],14 µM
same,Activity,WISH,Non-toxic
same,Activity,WI-38,Non-toxic
same,IC50,HCT-116 [3],19.7 µM
same,IC50,HepG2,18.5 µM
same,IC50,MCF7 [4],9.67 µM
same,IC50,HEp-2,35.2 µM
same,IC50 at 48 h,[5],82.7 µM
N#Cc1sc(Nc2ccccc2)nc1NC(=O)CNNCC(=O)c1ccccc1,IC50,HeLa [2],47 µM
same,IC50,HCT-116 [3],36.5 µM
same,IC50,HepG2,52.3 µM
same,IC50,MCF7 [4],39 µM
same,IC50,HEp-2,64.7 µM
N#Cc1sc(Nc2ccccc2)nc1NC(=O)CNNCc1ccccc1,IC50 at 48 h,[1],75.6 µM
same,IC50,HeLa [2],21.4 µM
same,Activity,WISH,Non-toxic
same,Activity,WI-38,Non-toxic
same,IC50,HCT-116 [3],41.8 µM
same,IC50,HepG2,28.3 µM
same,IC50,MCF7 [4],9.1 µM
same,IC50,HEp-2,68.4 µM
same,IC50 at 48 h,[5],47.4 µM
N#Cc1sc(Nc2ccccc2)nc1NC(=O)CN1CCCCC1,IC50 at 48 h,[1],23.7 µM
same,IC50,HeLa [2],22.8 µM
same,Activity,WISH,Non-toxic
same,Activity,WI-38,Non-toxic
same,IC50,HCT-116 [3],14.2 µM
same,IC50,HepG2,30.5 µM
same,IC50,MCF7 [4],16.7 µM
same,IC50,HEp-2,28.8 µM
same,IC50 at 48 h,[5],21.2 µM
N#Cc1sc(Nc2ccccc2)nc1NC(=O)CNNCC(=O)c1ccc(Br)cc1,IC50,HeLa [2],43.4 µM
same,IC50,HCT-116 [3],34.9 µM
same,IC50,HepG2,46.1 µM
same,IC50,MCF7 [4],35.6 µM
same,IC50,HEp-2,49.1 µM
N#Cc1sc(Nc2ccccc2)nc1NC(=O)CNNC(=O)c1ccc([N+](=O)[O-])cc1,IC50,HeLa [2],49.8 µM
same,IC50,HCT-116 [3],55.2 µM
same,IC50,HepG2,57.3 µM
same,IC50,MCF7 [4],43.2 µM
same,IC50,HEp-2,80.4 µM
N#Cc1sc(Nc2ccccc2)nc1NC(=O)CNNCC(=O)c1ccc(Cl)cc1,Activity,MCF7 [6],23.84%
same,Activity,Ehrlich [7],Active
same,Activity,MCF7 [8],12.55%
same,IC50 at 48 h,[1],60.8 µM
same,Activity,MCF7 [9],63.61%
same,IC50,HeLa [2],10.6 µM
same,Activity,HeLa [10],2.66%
same,Activity,HCT-116 [11],2.2%
same,Activity,WISH,Non-toxic
same,Activity,HeLa [12],41.19%
same,Activity,WI-38,Non-toxic
same,Activity,HCT-116 [13],51.96%
same,Activity,MCF7 [14],6.22%
same,Activity,MCF7 [15],4.47%
same,IC50,HCT-116 [3],11.6 µM
same,Activity,HCT-116 [16],16.05%
same,Activity,HeLa [17],2.17%
same,Activity,HCT-116 [18],2.25%
same,Activity,HCT-116 [19],31.99%
same,IC50,HepG2,15.2 µM
same,Activity,HeLa [20],12.35%
same,Activity,HCT-116 [21],8.29%
same,Activity,HeLa [22],15.23%
same,IC50,MCF7 [4],13.3 µM
same,Activity,HCT-116 [23],21.42%
same,Activity,HeLa [24],43.64%
same,Activity,MCF7 [25],19.17%
same,Activity,MCF7 [26],1.58%
same,Activity,HeLa [27],19.17%
same,IC50,HEp-2,26.9 µM
same,inhibition in vivo at 10 mg/kg,Ehrlich [28],> 50%
same,IC50 at 48 h,[5],77.2 µM
N#Cc1sc(Nc2ccccc2)nc1NC(=O)CN1CCN(c2ccccc2)CC1,IC50,HeLa [2],38.5 µM
same,IC50,HCT-116 [3],51.7 µM
same,IC50,HepG2,42.4 µM
same,IC50,MCF7 [4],19.1 µM
same,IC50,HEp-2,73.5 µM
N#Cc1sc(Nc2ccccc2)nc1NC(=O)CN1CCOCC1,IC50,HeLa [2],36.7 µM
same,IC50,HCT-116 [3],31.1 µM
same,IC50,HepG2,38.5 µM
same,IC50,MCF7 [4],33.5 µM
same,IC50,HEp-2,45.8 µM
CC(=O)N1CCN(CC(=O)Nc2nc(Nc3ccccc3)sc2C#N)CC1,IC50,HeLa [2],74.5 µM
same,IC50,HCT-116 [3],65.2 µM
same,IC50,HepG2,78.4 µM
same,IC50,MCF7 [4],61.9 µM
same,IC50,HEp-2,89 µM
N#Cc1sc(Nc2ccccc2)nc1NC(=O)CN1CCN(c2cccc(Cl)c2)CC1,IC50,HeLa [2],72.1 µM
same,IC50,HCT-116 [3],60.4 µM
same,IC50,HepG2,76 µM
same,IC50,MCF7 [4],59.1 µM
same,IC50,HEp-2,87.9 µM
